Calls of active or inactive are those of the source. The rule behind the calls is not given here.
biological target: Alkaline phosphatase, germ cell type (Homo sapiens) (UniProt P10696); assay: inhibitors of germ cell alkaline phosphatase – biochemical, human placental-like ALPPL2 isozyme, selectivity assay for mouse IAP inhibitor project, SAR follow-up (AID 493136); conditions: purified placental-like alkaline phosphatase, phosphatase activity
Sequence (P10696 whole entry, looked up): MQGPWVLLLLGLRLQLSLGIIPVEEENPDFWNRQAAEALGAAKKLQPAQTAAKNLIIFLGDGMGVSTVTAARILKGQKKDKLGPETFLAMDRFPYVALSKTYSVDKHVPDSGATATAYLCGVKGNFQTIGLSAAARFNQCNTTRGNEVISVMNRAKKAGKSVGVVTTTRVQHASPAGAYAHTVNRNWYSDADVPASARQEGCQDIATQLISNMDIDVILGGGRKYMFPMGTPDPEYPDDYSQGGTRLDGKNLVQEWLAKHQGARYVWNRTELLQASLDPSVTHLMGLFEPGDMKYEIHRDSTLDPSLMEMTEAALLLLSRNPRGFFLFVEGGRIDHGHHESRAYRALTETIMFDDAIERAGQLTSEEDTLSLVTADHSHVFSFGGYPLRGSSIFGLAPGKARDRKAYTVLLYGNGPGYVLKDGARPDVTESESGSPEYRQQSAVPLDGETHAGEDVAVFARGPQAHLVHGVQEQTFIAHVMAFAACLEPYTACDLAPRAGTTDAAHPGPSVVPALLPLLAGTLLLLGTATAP

SMILES | IC50
CC(C)N1CCC(=NNC(=O)c2cc(O)c(O)c(O)c2)CC1 | > 100 µM (inactive)
COc1cc(NC(=S)NCCC(c2ccccc2)c2ccccc2)cc(OC)c1 | > 100 µM (inactive)
CCn1cc(CN2CCC(C(=O)Nc3cccc(-c4cccc(OC)c4)c3)CC2)cn1 | > 100 µM (inactive)
Cn1cc(CN2CCC(C(=O)Nc3cccc(-c4cccc(F)c4)c3)CC2)cn1 | > 100 µM (inactive)
O=C(CN1C(=O)/C(=C\c2ccco2)SC1=S)Nc1ccccc1C(=O)O | > 100 µM (inactive)
CCCn1ncc(CN2CCC(C(=O)Nc3cccc(-c4cccc(F)c4)c3)CC2)c1C | > 100 µM (inactive)
COc1cccc(-c2cccc(NC(=O)C3CCN(Cc4ccc(C)o4)CC3)c2)c1 | > 100 µM (inactive)
Cc1ccc(CN2CCC(C(=O)Nc3cccc(-c4cccc(F)c4)c3)CC2)o1 | > 100 µM (inactive)
CCn1nc(C)c(CN2CCC(C(=O)Nc3cccc(-c4cccc(Cl)c4)c3)CC2)c1C | > 100 µM (inactive)
Cn1cc(CN2CCC(C(=O)Nc3cccc(-c4cccc(Cl)c4)c3)CC2)cn1 | > 100 µM (inactive)
O=[N+]([O-])c1ccc(NC(=S)NCCC(c2ccccc2)c2ccccc2)cc1 | > 100 µM (inactive)
CCN1CCN(S(=O)(=O)c2ccc3[nH]c(=O)oc3c2)CC1 | > 100 µM (inactive)
COc1cccc(-c2cccc(NC(=O)C3CCN(Cc4ccc(CO)o4)CC3)c2)c1 | > 100 µM (inactive)
CCOC(=O)c1ccc(NC(=S)NCCC(c2ccccc2)c2ccccc2)cc1 | > 100 µM (inactive)
S=C(NCCC(c1ccccc1)c1ccccc1)Nc1ccccc1 | > 100 µM (inactive)
COCc1ccc(CN2CCC(C(=O)Nc3cccc(-c4cccc(Cl)c4)c3)CC2)o1 | > 100 µM (inactive)
Cc1c(Cl)cccc1Nc1nc(-c2ccc(O)c(O)c2)cs1 | > 100 µM (inactive)
S=C(NCCC(c1ccccc1)c1ccccc1)Nc1ccc(Nc2ccccc2)cc1 | > 100 µM (inactive)
CCn1ncc(CN2CCC(C(=O)Nc3cccc(-c4cccc(F)c4)c3)CC2)c1C | > 100 µM (inactive)
S=C(NCCC(c1ccccc1)c1ccccc1)Nc1ccc(Cl)cc1 | > 100 µM (inactive)
O=C(Nc1cccc(-c2cccc(Cl)c2)c1)C1CCN(C2CCC2)CC1 | > 100 µM (inactive)
FC(F)(F)c1cccc(NC(=S)NCCC(c2ccccc2)c2ccccc2)c1 | > 100 µM (inactive)
Fc1ccccc1NC(=S)NCCC(c1ccccc1)c1ccccc1 | > 100 µM (inactive)

SMILES | IC50
COc1ccc(NC(=S)NCCC(c2ccccc2)c2ccccc2)cc1 | > 100 µM (inactive)
CCn1nc(C)c(CN2CCC(C(=O)Nc3cccc(-c4cccc(F)c4)c3)CC2)c1C | > 100 µM (inactive)
CCn1c(SCC(=O)c2ccc(O)c(O)c2)nnc1-c1ccccc1OC | 24.4 µM
C=CCn1cc(CN2CCC(C(=O)Nc3cccc(-c4cccc(Cl)c4)c3)CC2)c(C)n1 | > 100 µM (inactive)
S=C(NCCC(c1ccccc1)c1ccccc1)Nc1ccc(Cl)cc1Cl | > 100 µM (inactive)
COc1ccc(C(=O)CSc2n[nH]c(-c3ccccc3)n2)cc1OC | > 100 µM (inactive)
CN(C)S(=O)(=O)c1cccc(NC(=S)NCCC(c2ccccc2)c2ccccc2)c1 | > 100 µM (inactive)
Cc1ccc(NC(=S)NCCC(c2ccccc2)c2ccccc2)cc1 | > 100 µM (inactive)
Cc1ccc(C)c(NC(=S)NCCC(c2ccccc2)c2ccccc2)c1 | > 100 µM (inactive)
Cc1c(CN2CCC(C(=O)Nc3cccc(-c4cccc(Cl)c4)c3)CC2)cnn1C | > 100 µM (inactive)
O=C(CN1C(=O)/C(=C/c2ccco2)SC1=S)Nc1cccc(C(=O)O)c1 | > 100 µM (inactive)
Cc1cccc(NC(=S)NCCC(c2ccccc2)c2ccccc2)c1C | > 100 µM (inactive)
Cc1cc(C)cc(NC(=S)NCCC(c2ccccc2)c2ccccc2)c1 | > 100 µM (inactive)
CCn1cc(CN2CCC(C(=O)Nc3cccc(-c4cccc(Cl)c4)c3)CC2)cn1 | > 100 µM (inactive)
CCn1cc(CN2CCC(C(=O)Nc3cccc(-c4cccc(OC)c4)c3)CC2)c(C)n1 | > 100 µM (inactive)
Cc1nn(C)c(Cl)c1CN1CCC(C(=O)Nc2cccc(-c3cccc(F)c3)c2)CC1 | > 100 µM (inactive)
Cc1nn(C(C)C)c(C)c1CN1CCC(C(=O)Nc2cccc(-c3cccc(F)c3)c2)CC1 | > 100 µM (inactive)
Fc1ccc(NC(=S)NCCC(c2ccccc2)c2ccccc2)cc1Cl | > 100 µM (inactive)
Cc1cc(=O)oc2cc(NC(=S)NCCC(c3ccccc3)c3ccccc3)ccc12 | > 100 µM (inactive)
CC(C)n1cc(CN2CCC(C(=O)Nc3cccc(-c4cccc(Cl)c4)c3)CC2)cn1 | > 100 µM (inactive)
CC(C)c1ccccc1NC(=S)NCCC(c1ccccc1)c1ccccc1 | > 100 µM (inactive)
Cc1ccc(NC(=S)NCCC(c2ccccc2)c2ccccc2)cc1C | > 100 µM (inactive)
CCn1cc(CN2CCC(C(=O)Nc3cccc(-c4cccc(F)c4)c3)CC2)cn1 | > 100 µM (inactive)

SMILES | IC50
S=C(NCCC(c1ccccc1)c1ccccc1)Nc1cccc(Cl)c1 | > 100 µM (inactive)
S=C(NCCC(c1ccccc1)c1ccccc1)Nc1ccc(Cl)c(Cl)c1 | > 100 µM (inactive)
CCc1ccccc1Nc1nc(-c2ccc(O)c(O)c2)cs1 | > 100 µM (inactive)
COc1ccc(Cl)cc1Nc1nc(-c2ccc(O)c(O)c2)cs1 | > 100 µM (inactive)
O=S(=O)(Nc1ncccn1)c1ccc(NC(=S)NCCC(c2ccccc2)c2ccccc2)cc1 | > 100 µM (inactive)
C=CCn1cc(CN2CCC(C(=O)Nc3cccc(-c4cccc(F)c4)c3)CC2)c(C)n1 | > 100 µM (inactive)
Oc1ccc(-c2csc(Nc3cccc4ccccc34)n2)cc1O | > 100 µM (inactive)
O=C(Nc1cccc(-c2cccc(F)c2)c1)C1CCN(Cc2ccc(CO)o2)CC1 | > 100 µM (inactive)
Cc1ccc(NC(=O)CCNS(=O)(=O)c2ccc3[nH]c(=O)oc3c2)cc1C | > 100 µM (inactive)
Cc1c(Cl)cccc1NC(=S)NCCC(c1ccccc1)c1ccccc1 | > 100 µM (inactive)
Cc1cc(NC(=O)CCNS(=O)(=O)c2ccc3[nH]c(=O)oc3c2)ccc1Br | > 100 µM (inactive)
CC(C)n1cc(CN2CCC(C(=O)Nc3cccc(-c4cccc(F)c4)c3)CC2)cn1 | > 100 µM (inactive)
CC1(c2ccccc2)CC(C)(C)N(C(=S)Nc2ccccc2)c2ccccc21 (stereo not drawn) | > 100 µM (inactive)
COc1ccc(Cl)cc1NC(=S)NCCC(c1ccccc1)c1ccccc1 | > 100 µM (inactive)
NS(=O)(=O)c1ccc(NC(=S)NCCC(c2ccccc2)c2ccccc2)cc1 | > 100 µM (inactive)
COC(=O)c1cc(NC(=S)NCCC(c2ccccc2)c2ccccc2)cc(C(=O)OC)c1 | > 100 µM (inactive)
COc1cccc(NC(=S)NCCC(c2ccccc2)c2ccccc2)c1 | > 100 µM (inactive)
O=C(CN1C(=O)/C(=C/c2ccco2)SC1=S)Nc1ccc(C(=O)O)cc1 | > 100 µM (inactive)
Cc1cc(Cl)ccc1NC(=S)NCCC(c1ccccc1)c1ccccc1 | > 100 µM (inactive)
COc1cc([N+](=O)[O-])ccc1NC(=S)NCCC(c1ccccc1)c1ccccc1 | > 100 µM (inactive)
O=C(Nc1cccc(-c2cccc(Cl)c2)c1)C1CCN(Cc2ccc(CO)o2)CC1 | > 100 µM (inactive)
CN1CCC(=NNC(=O)c2cc(O)c(O)c(O)c2)CC1 | > 100 µM (inactive)
